From patent publication US12504393B2, “Method and system for determining the progesterone-associated physiological state of lactating cows” (Yissum Research Development Company of the Hebrew …, priority 2020, dated 2025)
“Also recorded” adds a separate entry of the source.

Legend:
Format in all cases: cell-based, cow
mammary epithelial cells [1] = experiment: Fatty acid distribution between triglyceride and phospholipid fractions (TLC and gas chromatography) after 24 h progesterone
Description: (§1) Lipids were extracted by the Folch protocol. Briefly, each cell sample was incubated for 1 h with “Folch mixture” (chloroform:methanol, […] volumetric ratio). The organic phase was separated by addition of double-distilled water (DDW) and overnight incubation at 4° C. The upper phase was then removed, and the lower phase filtered through glass wool. The lower phase was evaporated under nitrogen and then dissolved in chloroform:methanol (3:97). Samples were kept at −20° C. until further analysis.
Lipid separation was performed by thin-layer chromatography and gas chromatography analysis. For the thin-layer chromatography, silica gel was spread on glass plates and activated at 105° C., 24 h before the analysis. After cooling, the cell samples, extracted by Folch protocol, were loaded into the plates along with triglyceride (Tg) and phospholipids (PL) standards. The plates were inserted into a tank with a mixture of petroleum ether, […] and acetic acid (8:2:1 volometric ratio) for 30 min, then sprayed with 0.05% v/v dichlorofluorescein in ethanol) and examined under UV light. The detected lipid segments were then separated from the plates into methylation mixture (5% v/v H2SO4 in methanol) for 1 h incubation at 65° C. Then, 1.5 ml petroleum-ether and 3 ml DDW were added to each sample. The upper phase was collected into a new vial and the organic solvent was evaporated with nitrogen. Then 100 μl petroleum-ether was added to each sample for fatty acid analysis in a gas chromatograph model 6890N, equipped with a flame-ionization detector and DB-23 capillary silica (0.25-μm film; Agilent Technology, Wilmington, DE). The analysis was performed according to a protocol established as described in [18]. Peaks were identified with Chemstation software (Agilent Technology). The concentrations of fatty acids are given as molar percentages of the total molar sum of the identified fatty acids. Fatty acids were classified according to chemical characteristics such as double bonds and carbon-chain length.

mammary epithelial cells [2] = experiment: Increasing or decreasing progesterone concentrations with or without VLDL in the culture medium: lipid droplet number and cellular phenotype
Description: To determine whether the effect of progesterone on lipid droplet size is mediated by the presence of VLDL, a b-factorial experiment was performed. MEC were cultured with increasing or decreasing progesterone concentrations in the presence or absence of VLDL in the culture medium. This study was aimed to provide indirect evidence of lipoprotein lipase (LPL) activity, acting on VLDL and providing the MEC with exogenous, preformed fatty acids. After 48 h of incubation, cells were fixed and stained with Nile red and intracellular lipid droplet size was determined. Cells were grown on glass cover slips, washed three times with phosphate buffered saline (PBS) and fixed with 4% paraformaldehyde in PBS for 20 min at room temperature. Then the cells were washed four times with PBS, stained with Nile red (200 nM) and incubated for 15 min. Cover slips were then washed three times with PBS and stained with DAPI for 5 min. Cover slips were washed four more times with PBS and mounted on a slide with fluorescent mounting medium (Dako North America Inc., Carpinteria, CA). The slides were visualized under an Olympus BX40 fluorescence microscope equipped with an Olympus DP73 digital camera using CellSens Entry software (version 1.7, Olympus). Lipid droplet diameter was measured using ImageJ software (version 1.48, NIH, Bethesda, MD). Lipid droplet diameter was divided into three size categories: small (<1 μm), medium (1 μm<x<2 μm) and large (>2 μm).

mammary epithelial cells [3] = experiment: Lipid droplet number and size in primary mammary epithelial cells exposed 48 h to increasing or decreasing progesterone concentrations
Description: The effect of progesterone concentration pattern during the estrous cycle on lipid droplet size was also tested. Primary mammary epithelial cells were exposed for 48 h to either increasing (0.75, 2.5 and 5 ng/ml) progesterone concentrations or decreasing (5, 2.5 and 0.75 ng/ml) progesterone concentrations. The concentrations were increased or decreased at specific times to reflect the progesterone pattern during the increasing and decreasing phases of the estrus cycle, i.e. the cells were exposed to increasing concentrations of 0.75, 2.5 and 5 ng/ml progesterone at 0, 17 and 28 h, respectively and cells were exposed to decreasing concentrations of 5, 2.5 and 0.75 ng/ml progesterone at 0, 28 and 34 h, respectively. Cells were then fixed and stained with nile-red. Four slides were prepared for each treatment and lipid droplets were counted and measured under fluorescence microscope. The experiment was repeated twice.
For the in-vitro study, primary culture of MEC was performed according to a protocol established described in [1]. Briefly, mammary tissue was collected from lactating cows in a commercial slaughterhouse and immediately transferred to ice-cold growth medium with 1000 U/ml penicillin, 1 mg/ml streptomycin, 2.5 μg/ml amphotericin mixture, and 0.02 mg/ml heparin. Mammary tissue was digested in medium with 1 mg/ml collagenase, 1 mg/ml hyaluronidase and 0.02 mg/ml heparin, for 3 h at 37° C. After incubation, the suspension was filtered through a metal mesh (250 μm). Sediments were treated with trypsin-EDTA solution and filtered through a 100-μm cell strainer (BD Falcon, Bedford, MA). Then, the cells were grown in plastic culture dishes with DMEM/F12 supplemented with 10% (w-/v) fetal bovine serum, 100 U/ml penicillin, 100 μg/ml streptomycin, 0.25 μg/ml amphotericin B, 1 μg/ml insulin and […] hydrocortisone. The medium was changed every 48 h.
To determine whether the absolute progesterone concentration or its pattern (i.e., increasing or decreasing) affects MFG, cells were treated for 48 h with increasing doses of progesterone: 0.75, 2.5 and 5 ng/ml. The culture medium was replaced after 11, 17, and 20 h, respectively, aimed to mimic the in-vivo luteal phase. The decreasing phase consisted of exposure to 5, 2.5 and 0.75 ng/ml progesterone. Culture medium was replaced after 8, 12 and 28 h, respectively, to mimic the follicular phase.
Cells were grown on glass cover slips, washed three times with phosphate buffered saline (PBS) and fixed with 4% paraformaldehyde in PBS for 20 min at room temperature. […] The slides were visualized under an Olympus BX40 fluorescence microscope equipped with an Olympus DP73 digital camera using CellSens Entry software (version 1.7, Olympus). Lipid droplet diameter was measured using ImageJ software (version 1.48, NIH, Bethesda, MD). […]

mammary epithelial cells [4] = experiment: Cellular triglyceride and phospholipid content and composition by HPLC-ELSD after 24 h progesterone
Description: To examine the effect of progesterone on MFG formation, secretion and size, the culture medium was supplemented with very low-density lipoprotein (VLDL) and progesterone at different concentrations (0, 1, 5 and 20 ng/ml). Progesterone concentrations were based on those found in the plasma during the luteal and follicular phases in vivo. After 24 h, cells were either fixed for lipid droplet size analysis (detailed below (or harvested with trypsin (0.05% w/v), sedimented by centrifugation, and washed with 0.9 gr/L NaCl.
For lipid extraction and analysis, 150,000 MEC were plated in a 60-mm plastic dish. For Nile red fluorescence staining, 50,000 MEC were plated in a 6-well plate on glass cover slips. After 24 h incubation, the culture medium was replaced with DMEM/F12 without serum, containing 0.15% (w/v) free fatty acids-free BSA and insulin (1 μg/ml), hydrocortisone (0.5 μg/ml) and prolactin (1 μg/ml). Cells were incubated for 48 h to induce milk lipid and protein synthesis.
as §1
High-pressure liquid chromatography (HPLC) was performed in an HPLC 1200 (Agilent Technology) equipped with evaporative light-scattering detector. Tg, cholesterol and PL were identified using external standards (Sigma Aldrich). Quantification was performed against external standard curves and expressed as μg/106 live cells or as weight % of the total PL (μg) in the sample. The number of live cells was determined with a hemocytometer after Trypan blue staining.

mammary epithelial cells [5] = experiment: Lipid droplet number and size in primary mammary epithelial cells incubated 24 h with fixed progesterone concentrations (Nile red/DAPI fluorescence microscopy)
Description: Epithelial cells were isolated for mammary biopsies according to the method described in [3]. Cells were incubated for 24 h with 0, 1, 5, and 20 ng/ml progesterone. Cells were then fixed with 4% paraformaldehyde and nucleus and lipid droplets were stained with Dapi and Nile red (Sigma Aldrich, Israel), respectively. Four slides were prepared for each treatment and were visualized with an Olympus BX40 fluorescence microscope equipped with an Olympus DP73 digital camera using CellSens Entry software version 1.7. The lipid droplets of 6-10 cells on each slide were counted and measured using ImageJ software. The experiment was repeated twice. For the in-vitro study, primary culture of MEC was performed according to a protocol established described in [1]. Briefly, mammary tissue was collected from lactating cows in a commercial slaughterhouse and immediately transferred to ice-cold growth medium with 1000 U/ml penicillin, 1 mg/ml streptomycin, 2.5 μg/ml amphotericin mixture, and 0.02 mg/ml heparin. Mammary tissue was digested in medium with 1 mg/ml collagenase, 1 mg/ml hyaluronidase and 0.02 mg/ml heparin, for 3 h at 37° C. After incubation, the suspension was filtered through a metal mesh (250 μm). Sediments were treated with trypsin-EDTA solution and filtered through a 100-μm cell strainer (BD Falcon, Bedford, MA). Then, the cells were grown in plastic culture dishes with DMEM/F12 supplemented with 10% (w-/v) fetal bovine serum, 100 U/ml penicillin, 100 μg/ml streptomycin, 0.25 μg/ml amphotericin B, 1 μg/ml insulin and […] hydrocortisone. The medium was changed every 48 h. To examine the effect of progesterone on MFG formation, secretion and size, the culture medium was supplemented with very low-density lipoprotein (VLDL) and progesterone at different concentrations (0, 1, 5 and 20 ng/ml). Progesterone concentrations were based on those found in the plasma during the luteal and follicular phases in vivo. After 24 h, cells were either fixed for lipid droplet size analysis (detailed below (or harvested with trypsin (0.05% w/v), sedimented by centrifugation, and washed with 0.9 gr/L NaCl. For lipid extraction and analysis, 150,000 MEC were plated in a 60-mm plastic dish. For Nile red fluorescence staining, 50,000 MEC were plated in a 6-well plate on glass cover slips. After 24 h incubation, the culture medium was replaced with DMEM/F12 without serum, containing 0.15% (w/v) free fatty acids-free BSA and insulin (1 μg/ml), hydrocortisone (0.5 μg/ml) and prolactin (1 μg/ml). Cells were incubated for 48 h to induce milk lipid and protein synthesis. Cells were grown on glass cover slips, washed three times with phosphate buffered saline (PBS) and fixed with 4% paraformaldehyde in PBS for 20 min at room temperature. Then the cells were washed four times with PBS, stained with Nile red (200 nM) and incubated for 15 min. Cover slips were then washed three times with PBS and stained with DAPI for 5 min. Cover slips were washed four more times with PBS and mounted on a slide with fluorescent mounting medium (Dako North America Inc., Carpinteria, CA). The slides were visualized under an Olympus BX40 fluorescence microscope equipped with an Olympus DP73 digital camera using CellSens Entry software (version 1.7, Olympus). Lipid droplet diameter was measured using ImageJ software (version 1.48, NIH, Bethesda, MD). Lipid droplet diameter was divided into three size categories: small (<1 μm), medium (1 μm<x<2 μm) and large (>2 μm).

CC(=O)[C@H]1CC[C@H]2[C@@H]3CCC4=CC(=O)CC[C@]4(C)[C@H]3CC[C@]12C [progesterone]
distribution of stearic acid (C18:0) between Tg and PL (mammary epithelial cells [1]; 1 ng/ml progesterone): higher in the PL compartment; also recorded: found primarily in the membrane | distribution of stearic acid between Tg and membrane (mammary epithelial cells [1]; 5 ng/ml progesterone): mostly incorporated into the Tg | concentration of lignoceric acid (C24:0), Tg vs PL (mammary epithelial cells [1]; 5 ng/ml progesterone, P<0.05): higher in the PL compartment | differences in lipid droplet number and cellular phenotype between increasing and decreasing progesterone (mammary epithelial cells [2]; absence of VLDL): no differences were found | increase in MEC with large lipid droplets (>1 μm) (mammary epithelial cells [2]; decreasing progesterone concentration model with VLDL, P<0.0001): 4 fold | increase in proportion of MEC with small lipid droplets (<1 μm) (mammary epithelial cells [2]; increasing progesterone concentration model with VLDL): 2.4 fold | average number of lipid droplets per field (mammary epithelial cells [2]; increasing progesterone concentration with VLDL vs other treatments, FIG. 20B, P<0.0001): Highest number of lipid droplets | proportion of large lipid droplets (>2 μm) of the total number of lipid droplets (mammary epithelial cells [3]; decreasing ('down') compared to increasing ('up') progesterone concentrations, 48 h, FIG. 6, P=0.03): 2 fold | increase in the number of lipid droplets (mammary epithelial cells [3]; increasing (0.75, 2.5, 5 ng/ml, 'up') relative to decreasing (5, 2.5, 0.75 ng/ml, 'down') progesterone, 48 h, FIG. 5, P<0.0001): 5.5 fold | increase in the large lipid droplets (mammary epithelial cells [3]; increasing progesterone concentration 'compared to the increasing progesterone pattern' (so in the source), P<0.0001): 3 fold | large lipid droplet phenotype (cells with droplets x>1 μm) (mammary epithelial cells [3]; increasing vs decreasing progesterone, FIG. 19C): only visualized in cells treated with increasing progesterone levels | membrane PL composition (PI, PE, PS, PC, SM) (mammary epithelial cells [4]; 0, 1, 5 and 20 ng/ml progesterone, 24 h): did not affect | concentration of Tg (cellular triglyceride content) (mammary epithelial cells [4]; 0, 1, 5 and 20 ng/ml progesterone, 24 h, FIG. 17A): not affected by progesterone | increase in concentration of the measured PL (mammary epithelial cells [4]; 1 ng/ml compared to 0, 5 and 20 ng/ml progesterone, 24 h, P<0.05): approximately 1.3 fold | PL amount (mammary epithelial cells [4]; 5 ng/ml progesterone, 24 h, P<0.05): tended to decrease | PC concentration (elevated) (mammary epithelial cells [4]; progesterone 24 h, apparently the 1 ng/ml treatment, P<0.05): 20 μg/106 cells | proportion of large droplets (>1 μm) (mammary epithelial cells [5]; 0, 1 or 20 ng/ml progesterone, 24 h): ≤ 20% | proportion of droplets larger than 1 μm (mammary epithelial cells [5]; 5 ng/ml progesterone, 24 h): over 40% | number of lipid droplets (mammary epithelial cells [5]; 5 ng/ml progesterone, 24 h, vs control): did not differ from the control | rate of large droplets (>1 μm) (mammary epithelial cells [5]; 20 ng/ml progesterone, 24 h): 6.5% | number of large lipid droplets (>1 μm) per cell (mammary epithelial cells [5]; 1 and 5 ng/ml progesterone, 24 h, relative to control (0 ng/ml), FIG. 3): higher number of large lipid droplets | proportion of large lipid droplets (X≥1 μm) (mammary epithelial cells [5]; 1 and 5 ng/ml relative to 20 ng/ml progesterone, FIG. 4, P<0.0001): higher | number of lipid droplets (mammary epithelial cells [5]; 1 or 20 ng/ml progesterone, 24 h, vs control (no progesterone), P<0.0001): 3.5 fold
